Values joined by “and” are separate entries in the source; they are usually repeats but may differ in a detail not shown here. Equal values may be shown once.
Experiments:
[1] = molecular target: T1, DPP-IV (Homo sapiens, UniProt P27487); assay: In vitro assay for dipeptidyl peptidase inhibition; type: biochemical; details: hydrochloride salts; Gly-Pro-4-methoxy B naphthylamide substrate; overnight at 37° C.; read-out: IC50 (concentration of test compound required for 50% inhibition)
T1 construct: purchased Enzyme Systems Products SPE-01
T1 sequence (P27487 whole entry, species assumed): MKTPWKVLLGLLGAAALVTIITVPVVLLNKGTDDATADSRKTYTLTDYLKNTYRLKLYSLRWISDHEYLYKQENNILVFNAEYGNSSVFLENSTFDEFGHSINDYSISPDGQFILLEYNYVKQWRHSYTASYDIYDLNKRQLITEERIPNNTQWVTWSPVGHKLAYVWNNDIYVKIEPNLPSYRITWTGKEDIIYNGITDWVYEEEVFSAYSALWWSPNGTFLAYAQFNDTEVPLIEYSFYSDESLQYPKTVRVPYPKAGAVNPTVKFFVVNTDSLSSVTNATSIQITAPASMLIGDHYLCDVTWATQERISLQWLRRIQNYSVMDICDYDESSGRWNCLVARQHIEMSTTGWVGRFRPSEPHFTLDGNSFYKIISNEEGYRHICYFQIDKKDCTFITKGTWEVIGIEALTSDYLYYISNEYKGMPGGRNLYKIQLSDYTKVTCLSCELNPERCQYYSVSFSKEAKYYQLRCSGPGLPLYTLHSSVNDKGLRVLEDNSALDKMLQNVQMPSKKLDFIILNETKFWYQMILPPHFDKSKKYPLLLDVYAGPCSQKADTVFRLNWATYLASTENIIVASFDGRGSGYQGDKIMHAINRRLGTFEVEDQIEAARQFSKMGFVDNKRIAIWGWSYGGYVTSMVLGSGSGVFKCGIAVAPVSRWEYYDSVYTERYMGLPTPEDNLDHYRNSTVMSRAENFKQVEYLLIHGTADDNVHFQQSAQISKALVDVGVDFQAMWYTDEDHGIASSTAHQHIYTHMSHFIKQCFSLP
Experimental: 150 μL of an enzyme-substrate solution was pipetted into microtiter wells of a polystyrene 96-well plate, and maintained at 4° C. The enzyme-substrate solution comprised 50 μM Gly-Pro-4-methoxy B naphthylamide HCl in 50 mM Tris assay buffer pH 7.3 containing 0.1M sodium chloride, 0.1% (v/v) Triton and 50 μU/mL DPP-IV (Enzyme Systems Products Cat#SPE-01, DPP-IV 5 mU/mL stock). 5 μL/well of compounds of Formula (I) were added, bringing the final compound of Formula (I) concentrations to 3 μM-10 nM per well.
Controls. Enzyme was omitted from four (4) wells, as a reagent blank. 5 μL of 3 mM Diprotin A was added to four wells as a positive quality control, providing a final Diprotin A concentration of 100 μM. To measure total enzyme activity (i.e. a negative control), without the influence of any compounds of Formula (I), 5 μL of distilled water was added to four wells.
The entire assay was incubated overnight (about 14-18 hours) at 37° C.

[2] = Madin-Darby Canine Kidney Cells (MDCK) permeability assay; type: in vitro ADME; details: dog, apparent permeability, apical to basolateral
Experimental: Drug permeability through MDCK cell monolayers is known to be a useful tool as a model for cellular barrier for assessing intestinal epithelial drug transport, and thus to estimate intestinal permeability for orally administered compounds.
In this assay, monolayer cultures, suitable for investigation of compound permeability, were grown on Falcon/BD 96-well membrane inserts. The monolayers were maintained at 37° C. in a 5% CO2 atmosphere at 95% relative humidity until confluent. Apparent permeabilities of test compounds were determined in duplicate at a single concentration of 2 μM in the apical to basolateral direction. The transport investigations were initiated by the addition of the compound (2 μM of a solution containing 0.4% DMSO) to the apical compartment and the plates were maintained under culture conditions during the course of the experiment. The basolateral compartments following 2.5 hours of exposure and the final apical compartments were collected and analyzed for compound content by LC-MS/MS. The apparent permeability of each compound was then calculated.
Compounds of the present invention, such as those of Examples 18 and 27 were used in this assay. By comparison, comparison DPP-IV inhibitor compounds, which are generically disclosed in International Application WO02/076450, were also synthesized, and then used in this assay.

[3] = system: KK/H1J mice; assay: In vivo assay for glucose lowering (oral glucose tolerance test); details: fasted KK/H1J mice
Description: The glucose lowering effects of DPP-IV inhibitors for some compounds of the present invention were exemplified in 4-6 week old KK/H1J mice (Jackson Labs) in the context of an oral glucose tolerance test. Oral glucose tolerance tests (“OGTT”) have been in use in humans since, at least, the 1930s, Pincus et al., Am. J. Med. Sci, 188: 782 (1934), and are routinely used in the diagnosis of human diabetes, though not to evaluate the efficacy of therapeutic agents in patients. KK mice have been used to evaluate glitazones (Fujita et al. Diabetes 32:804-810 (1983); Fujiwara et al., Diabetes 37: 1549-48 (1988); Izumi et al. Biopharm Drug. Dispos. 18:247-257 (1997)), metformin (Reddi et al. Diabet. Metabl. 19:44-51 (1993)), glucosidase inhibitors (Hamada et al. Jap. Pharmacol. Ther. 17:17-28 (1988); Matsuo et al. Am. J. Clin. Nutr. 55:314S-317S (1992)), and the extra-pancreatic effects of sulfonylureas (Kameda et al Arzneim. Forsch./Drug Res. 32:39044 (1982); Muller et al. Horm. Metabl. Res. 28:469-487 (1996)).
KK mice are derived from an inbred line first established by Kondo et al. (Kondo et al. Bull. Exp. Anim. 6:107-112 (1957)).
The mice were fasted overnight (about 14-18 hours), but allowed free access to water. […] The blood samples were centrifuged, the plasma collected and analyzed for glucose content on a Roche-Hitachi 912 glucose analyzer. […]

| Compound | IC50 [1] | also measured |
| --- | --- | --- |
| Nc1nccnc1C(=O)N[C@H]1CC[C@H]([C@H](N)C(=O)N2CCCC2)CC1 [Example 18, (S)-3-amino-pyrazine-2-carboxylic acid [trans-4-(1-Amino-2-oxo-2-pyrrolidin-1-yl-ethyl)-cyclohexyl]-amide] | ≤ 100 nM | Papp A→B at 2.5 h, 2 μM [2]: 4.8 ×10⁻⁶ cm/s |
| N[C@H](C(=O)N1CCCC1)[C@H]1CC[C@H](N2C(=O)c3ccncc3C2=O)CC1 [Example 23, 2-[trans-4-((1S)-1-amino-2-oxo-2-pyrrolidin-1-yl-ethyl)-cyclohexyl]-pyrrolo[3,4-c]pyridine-1,3-dione] | 18 nM and ≤ 100 nM | percent (%) inhibition of glucose excursion ([3]; oral dose level of 5 mg/kg, plasma glucose at t=45 minutes): about 65% |
| N[C@H](C(=O)N1CCCC1)[C@H]1CC[C@H](NC(=O)[C@@H]2C[C@@H](O)CN2C(=O)NCc2ccccc2)CC1 [Example 26, (2S,4R)-4-hydroxy-pyrrolidine-1,2-dicarboxylic acid 2-{[trans-4-((1S)-1-Amino-2-oxo-2-pyrrolidin-1-yl-ethyl)-cyclohexyl]-amide}1-benzylamide] | ≤ 100 nM | glucose lowering / inhibition of glucose excursion (in words) ([3]; oral dosing, dose not stated): did not demonstrate inhibition |
| N[C@H](C(=O)N1CCCC1)[C@H]1CC[C@H](NC(=O)c2nccnc2NCCc2ccccc2)CC1 [Example 27] | ≤ 100 nM | Papp A→B at 2.5 h, 2 μM [2]: 6.2 ×10⁻⁶ cm/s |
| N#C[C@@H]1CCCN1C(=O)[C@@H](N)[C@H]1CC[C@H](NC(=O)c2cc3cccn3cn2)CC1 [Example 47, pyrrolo[1,2-c]pyrimidine-3-carboxylic acid {trans-4-[(1S)-1-Amino-2-((2S)-2-cyano-pyrrolidin-1-yl)-2-oxo-ethyl]-cyclohexyl}-amide] | ≤ 100 nM |  |
| Cc1nn(C)c(C(=O)N[C@H]2CC[C@H]([C@H](N)C(=O)N3CCCC3)CC2)c1N [Example 48, (S)-4-amino-2,5-dimethyl-2H-pyrazole-3-carboxylic acid [trans-4-(1-amino-2-oxo-2-pyrrolidin-1-yl-ethyl)-cyclohexyl]-amide] | ≤ 100 nM |  |
| Nc1nccnc1C(=O)N[C@H]1CC[C@H]([C@H](N)C(=O)N2CC[S+]([O-])C2)CC1 (stereo partly drawn) [Example 49, 3-amino-pyrazine-2-carboxylic acid {trans-4-[(1S)-1-amino-2-oxo-2-(1-oxo-1×4-thiazolidin-3-yl)-ethyl]-cyclohexyl}-amide] | 100 to 500 nM |  |
| N[C@H](C(=O)N1CCCC1)[C@H]1CC[C@H](N2Cc3ccccc3S2(=O)=O)CC1 [Example 50, (2S)-2-amino-2-[trans-4-(1,1-dioxo-1,3-dihydro-1λ^6-benzo[d]isothiazol-2-yl)-cyclohexyl]-1-pyrrolidin-1-yl-ethanone] | ≤ 100 nM |  |
| N[C@H](C(=O)N1CCSC1)[C@H]1CC[C@H](N2Cc3ccccc3S2(=O)=O)CC1 [Example 51, (2S)-2-amino-2-[trans-4-(1,1-dioxo-1,3-dihydro-1λ^6-benzo[d]isothiazol-2-yl)-cyclohexyl]-1-thiazolidin-3-yl-ethanone] | ≤ 100 nM |  |
| N[C@H](C(=O)N1CC[C@@H](F)C1)[C@H]1CC[C@H](NC(=O)c2cccc(O)n2)CC1 [Example 52, 6-hydroxy-pyridine-2-carboxylic acid {trans-4-[(1S)-1-amino-2-((3R)-3-fluoro-pyrrolidin-1-yl)-2-oxo-ethyl]-cyclohexyl}-amide] | ≤ 100 nM |  |
| N[C@H](C(=O)N1CC[C@@H](F)C1)[C@H]1CC[C@H](NC(=O)c2cncc(O)n2)CC1 [Example 53, 6-Hydroxy-pyrazine-2-carboxylic acid {trans-4-[(1S)-1-Amino-2-((3R)-3-fluoro-pyrrolidin-1-yl)-2-oxo-ethyl]-cyclohexyl}-amide] | ≤ 100 nM |  |
| N[C@H](C(=O)N1CCCC1)[C@H]1CC[C@H](NC(=O)c2cnccn2)CC1 [reference compound] |  | Papp A→B at 2.5 h, 2 μM [2]: 1.1 ×10⁻⁶ cm/s |
| Cc1cnc(C(=O)N[C@H]2CC[C@H]([C@H](N)C(=O)N3CCCC3)CC2)cn1 [reference compound] |  | Papp A→B at 2.5 h, 2 μM [2]: 0.7 ×10⁻⁶ cm/s |

The next lines start with results.

| IC50 [1] | Compound | also measured |
| --- | --- | --- |
| ≤ 100 nM | Cn1ccc2cc(C(=O)N[C@H]3CC[C@H]([C@H](N)C(=O)N4CCC[C@H]4C#N)CC3)ncc21 [Example 54, N-(trans-4-{(1S)-1-Amino-2-[(2S)-2-cyanopyrrolidin-1-yl]-2-oxoethyl}cyclohexyl)-1-methyl-1H-pyrrolo[2,3-c]pyridine-5-carboxamide] |  |
| ≤ 100 nM | CC1(C)COc2cnc(C(=O)N[C@H]3CC[C@H]([C@H](N)C(=O)N4CCC[C@H]4C#N)CC3)cc21 [Example 55, N-(trans-4-{(1S)-1-amino-2-[(2S)-2-cyanopyrrolidin-1-yl]-2-oxoethyl}cyclohexyl)-3,3-dimethyl-2,3-dihydrofuro[2,3-c]pyridine-5-carboxamide] |  |
| ≤ 100 nM | N#C[C@@H]1CCCN1C(=O)[C@@H](N)[C@H]1CC[C@H](NC(=O)c2cn3cccc3cn2)CC1 [Example 56, N-(trans-4-{(S)-1-amino-2-[(2S)-2-cyanopyrrolidin-1-yl]-2-oxoethyl}cyclohexyl)pyrrolo[1,2-a]pyrazine-3-carboxamide] |  |
| ≤ 100 nM | N#C[C@@H]1CCCN1C(=O)[C@@H](N)[C@H]1CC[C@H](NC(=O)c2cc3sccc3cn2)CC1 [Example 57, N-(trans-4-{(1S)-1-amino-2-[(2S)-2-cyanopyrrolidin-1-yl]-2-oxoethyl}cyclohexyl)thieno[3,2-c]pyridine-6-carboxamide] |  |
| ≤ 100 nM | N#C[C@@H]1CCCN1C(=O)[C@@H](N)[C@H]1CC[C@H](NC(=O)c2cc3ccoc3cn2)CC1 [Example 58, N-(trans-4-{(1S)-1-amino-2-[(2S)-2-cyanopyrrolidin-1-yl]-2-oxoethyl}cyclohexyl) furo[2,3-c]pyridine-5-carboxamide] |  |
| ≤ 100 nM | Cc1cc(C)n2cnc(C(=O)N[C@H]3CC[C@H]([C@H](N)C(=O)N4CCC[C@H]4C#N)CC3)cc12 [Example 59, N-(trans-4-{(1S)-1-amino-2-[(2S)-2-cyanopyrrolidin-1-yl]-2-oxoethyl}cyclohexyl)-5,7-dimethylpyrrolo[1,2-c]pyrimidine-3-carboxamide] |  |
| ≤ 100 nM | N#C[C@@H]1CCCN1C(=O)[C@@H](N)[C@H]1CC[C@H](NC(=O)c2cc3ccsc3cn2)CC1 [Example 60, N-(trans-4-{(1S)-1-amino-2-[(2S)-2-cyanopyrrolidin-1-yl]-2-oxoethyl}cyclohexyl)thieno[2,3-c]pyridine-5-carboxamide] |  |
| ≤ 100 nM | N#C[C@@H]1CCCN1C(=O)[C@@H](N)[C@H]1CC[C@H](NC(=O)c2cc3occc3cn2)CC1 [Example 61, N-(trans-4-{(1S)-1-amino-2-[(2S)-2-cyanopyrrolidin-1-yl]-2-oxoethyl}cyclohexyl)furo[3,2-c]pyridine-6-carboxamide] |  |
| ≤ 100 nM | C#Cc1coc2cnc(C(=O)N[C@H]3CC[C@H]([C@H](N)C(=O)N4CCC[C@H]4C#N)CC3)cc12 [Example 62, N-(trans-4-{(S)-1-amino-2-[(2S)-2-cyanopyrrolidin-1-yl]-2-oxoethyl}cyclohexyl)-3-ethynylfuro[2,3-c]pyridine-5-carboxamide] |  |

Reference: patent publication US20050234065A1, “Dipeptidyl peptidase-IV inhibitors” (Pfizer Inc, priority 2004, published 2005)
